In patent US20250114359A1, “METHODS FOR […] G[…]/OR HEXOKINASE” (UNIVERSITY OF SOUTH CAROLINA, priority 2023, published 2025):

molecular target: Trypanosoma cruzi glucokinase (TcGlcK) (Trypanosoma cruzi, UniProt Q4E4E1); assay: Determination of Ki values by type 1 and type 2 Dixon plots; assay type: biochemical; conditions: not given;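 further: compounds supplied as 10 mM DMSO stocks (100 µL format), with a non-inhibitory compound run alongside for comparison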
Sequence (Q4E4E1 1-376): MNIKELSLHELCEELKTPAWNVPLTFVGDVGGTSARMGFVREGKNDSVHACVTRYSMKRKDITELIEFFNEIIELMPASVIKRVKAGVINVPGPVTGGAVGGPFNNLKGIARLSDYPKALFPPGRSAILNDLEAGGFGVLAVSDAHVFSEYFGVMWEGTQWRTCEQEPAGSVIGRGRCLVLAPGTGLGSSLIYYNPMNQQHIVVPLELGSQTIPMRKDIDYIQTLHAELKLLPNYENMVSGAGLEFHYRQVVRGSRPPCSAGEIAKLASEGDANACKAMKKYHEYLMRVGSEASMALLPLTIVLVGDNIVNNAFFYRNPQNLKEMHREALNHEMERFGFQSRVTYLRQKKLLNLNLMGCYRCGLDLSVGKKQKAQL

Compound | Ki
Cc1cc2c(C(C)C)c(O)c(O)c(/C=N/CCOc3ccccc3F)c2c(O)c1-c1c(C)cc2c(C(C)C)c(O)c(O)c(/C=N/CCOc3ccccc3F)c2c1O (atropisomer, axis not shown) [Inhibitor 76] | 105 µM
Cc1cc2c(C(C)C)c(O)c(O)c(/C=N/Nc3nc4ccccc4[nH]c3=O)c2c(O)c1-c1c(C)cc2c(C(C)C)c(O)c(O)c(/C=N/Nc3nc4ccccc4[nH]c3=O)c2c1O [Inhibitor 7] | 3.83 µM
COc1ccc(OC)c(/N=C/c2c(O)c(O)c(C(C)C)c3cc(C)c(-c4c(C)cc5c(C(C)C)c(O)c(O)c(/C=N/c6cc(OC)ccc6OC)c5c4O)c(O)c23)c1 [Inhibitor 11] | 30.5 µM
Cc1cc2c(C(C)C)c(O)c(O)c(/C=N/CCOc3ccc4c(c3)CCC4)c2c(O)c1-c1c(C)cc2c(C(C)C)c(O)c(O)c(/C=N/CCOc3ccc4c(c3)CCC4)c2c1O (atropisomer, axis not shown) [Inhibitor 82] | 98.9 µM
Cc1cc2c(C(C)C)c(O)c(O)c(/C=N/c3ccc(C(O)C(O)CO)cc3)c2c(O)c1-c1c(C)cc2c(C(C)C)c(O)c(O)c(/C=N/c3ccc(C(O)C(O)CO)cc3)c2c1O (stereo not shown) [Inhibitor 48] | 274 µM
Cc1cc2c(C(C)C)c(O)c(O)c(/C=N/Nc3cccc(Cl)n3)c2c(O)c1-c1c(C)cc2c(C(C)C)c(O)c(O)c(/C=N/Nc3cccc(Cl)n3)c2c1O [Inhibitor 9] | 11 µM
CCCSCC/N=C/c1c(O)c(O)c(C(C)C)c2cc(C)c(-c3c(C)cc4c(C(C)C)c(O)c(O)c(/C=N/CCSCC)c4c3O)c(O)c12 (atropisomer, axis not shown) [Inhibitor 83] | 84.5 µM
Cc1ccc(OCC/N=C/c2c(O)c(O)c(C(C)C)c3cc(C)c(-c4c(C)cc5c(C(C)C)c(O)c(O)c(/C=N/CCOc6ccc(C)cc6Br)c5c4O)c(O)c23)c(Br)c1 (atropisomer, axis not shown) [Inhibitor 77] | 42.3 µM
CCCCCC1CCC(=O)N1CCN/C=C1\C(=O)C(O)=C(C(C)C)c2cc(C)c(-c3c(C)cc4c(c3O)/C(=C/NCCN3C(=O)CCC3CCCCC)C(=O)C(O)=C4C(C)C)c(O)c21 (stereo not shown) [Inhibitor 75] | 560 µM
Cc1cc(C(=O)N/N=C/c2c(O)c(O)c(C(C)C)c3cc(C)c(-c4c(C)cc5c(C(C)C)c(O)c(O)c(/C=N/NC(=O)c6cc(C)[nH]n6)c5c4O)c(O)c23)n[nH]1 [Inhibitor 4] | 19.1 µM
Cc1cc2c(c(O)c1-c1c(C)cc3c(c1O)/C(=C/Nc1c(C)n(C)n(-c4ccccc4)c1=O)C(=O)C(O)=C3C(C)C)/C(=C/Nc1c(C)n(C)n(-c3ccccc3)c1=O)C(=O)C(O)=C2C(C)C (atropisomer, axis not shown) [Inhibitor 21] | 9.5 µM
Cc1cc2c(c(O)c1-c1c(C)cc3c(c1O)/C(=C/Nc1ccc(S(=O)(=O)Nc4nccs4)cc1)C(=O)C(O)=C3C(C)C)/C(=C/Nc1ccc(S(=O)(=O)Nc3nccs3)cc1)C(=O)C(O)=C2C(C)C (atropisomer, axis not shown) [Inhibitor 23] | 32.3 µM
Cc1cc(C=O)c(O)c(C=O)c1 [Inhibitor 44] | 99.1 µM
Cc1cc2c(c(O)c1-c1c(C)cc3c(c1O)C(C=C1C(=O)NC(=O)NC1=O)C(=O)C(O)=C3C(C)C)C(C=C1C(=O)NC(=O)NC1=O)C(=O)C(O)=C2C(C)C (stereo not shown) [Inhibitor 32] | 10.6 µM
Cc1cc2c(C(C)C)c(O)c(O)c(/C=N/CCOc3ccc(C4CCCCC4)cc3)c2c(O)c1-c1c(C)cc2c(C(C)C)c(O)c(O)c(/C=N/CCOc3ccc(C4CCCCC4)cc3)c2c1O (atropisomer, axis not shown) [Inhibitor 80] | 11.8 µM
COc1ccc(OCC/N=C/c2c(O)c(O)c(C(C)C)c3cc(C)c(-c4c(C)cc5c(C(C)C)c(O)c(O)c(/C=N/CCOc6ccc(OC)cc6)c5c4O)c(O)c23)cc1 (atropisomer, axis not shown) [Inhibitor 40] | 29.4 µM
CN(C)c1ccc(/C=C2/SC(=S)NC2=O)cc1 [Inhibitor 68] | 0.27 µM
CCOC(=O)Nc1ccc(/N=C/c2c(O)c(O)c(C(C)C)c3cc(C)c(-c4c(C)cc5c(C(C)C)c(O)c(O)c(/C=N/c6ccc(NC(=O)OCC)cc6)c5c4O)c(O)c23)cc1 [Inhibitor 12] | 4710 µM
Cc1cc2c(c(O)c1-c1c(C)cc3c(c1O)/C(=C/NCc1cccnc1)C(=O)C(O)=C3C(C)C)/C(=C/NCc1cccnc1)C(=O)C(O)=C2C(C)C (atropisomer, axis not shown) [Inhibitor 74] | 123 µM
Cc1cc2c(c(O)c1-c1c(C)cc3c(c1O)/C(=C/Nc1cccc(C(=C4C=CC(=N)C=C4)c4ccc(N)cc4)c1)C(=O)C(O)=C3C(C)C)/C(=C/Nc1cccc(C(=C3C=CC(=N)C=C3)c3ccc(N)cc3)c1)C(=O)C(O)=C2C(C)C [Inhibitor 30] | 3.9 µM
Cc1cc2c(C(C)C)c(O)c(O)c(/C=N/c3cccc(N4CCCC4=O)c3)c2c(O)c1-c1c(C)cc2c(C(C)C)c(O)c(O)c(/C=N/c3cccc(N4CCCC4=O)c3)c2c1O (atropisomer, axis not shown) [Inhibitor 87] | 17.6 µM
Cc1cc2nc[nH]c2c(/N=C/c2c(O)c(O)c(C(C)C)c3cc(C)c(-c4c(C)cc5c(C(C)C)c(O)c(O)c(/C=N/c6c(C)c(C)cc7nc[nH]c67)c5c4O)c(O)c23)c1C (atropisomer, axis not shown) [Inhibitor 86] | 2.58 µM
COc1c(C)cc(/N=C/c2c(O)c(O)c(C(C)C)c3cc(C)c(-c4c(C)cc5c(C(C)C)c(O)c(O)c(/C=N/c6cc(C)c(OC)c(C)c6)c5c4O)c(O)c23)cc1C (atropisomer, axis not shown) [Inhibitor 49] | 16.1 µM
Cc1cc2c(C(C)C)c(O)c(O)c(/C=N/CC34CC5CC(C)(CC(C)(C5)C3)C4)c2c(O)c1-c1c(C)cc2c(C(C)C)c(O)c(O)c(/C=N/C34CC5CC(C)(CC(C)(C5)C3)C4)c2c1O [Inhibitor 50] | 51.3 µM

same assay, conditions: type 1 and type 2 Dixon plots; comparison compound

Compound | inhibition (Dixon plots)
Cc1cc2c(C(C)C)c(O)c(O)c(/C=N/NC(N)=S)c2c(O)c1-c1c(O)cc2c(/C=N/NC(N)=S)c(O)c(O)c(C(C)C)c2c1C [comparative compound, reference compound] | does not exhibit inhibition
